This note sets out measurements from PubChem BioAssay (NCI).

The structures appear in SMILES notation.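 Protocol summary: plate cells (96-well), add compound at 5 concentrations, incubate 48 h, interpolate endpoints linearly. At the GI50, growth is halved. TGI denotes the concentration required for complete inhibition of growth.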

Assay in all cases: growth of human tumour cells (NCI), 48 h
The subject of experiment [1] is RXF 393 renal.
Experiment [2] concerns OVCAR-5 ovarian.
For experiment [3], the system named is HT29 colon.
For experiment [4], the system named is HL-60(TB) leukemia.
Experiment [5] has as its system NCI-H226 lung.
For experiment [6], the system named is KM12 colon.
The test system of experiment [7] is M14 melanoma.
The test system of experiment [8] is SN12C renal.
For experiment [9], the system named is IGROV1 ovarian.
Experiment [10] concerns HOP-92 NSCLC.

Consider `Cc1ccccc1N=C(N)Nc1ccccc1C`, for which the TGI in [1], in experiment [2], in [3], in [4], in [5] and in experiment [6] was over 100 µM throughout. Moreover, the TGI in experiment [7], in experiment [8] and in experiment [9] was over 100 µM each time.

With `Nc1nc(Cl)cc(NC23CC4CC(CC(C4)C2)C3)n1`, the TGI in [1], in experiment [2], in experiment [5], in [6], in experiment [7] and in [8] was over 100 µM throughout. The TGI in experiment [10] and in experiment [9] was over 100 µM each time.

As for `O=c1c(-c2ccccc2)c(SCCO)n(-c2ccccc2)c(=S)n1-c1ccccc1`, the TGI in experiment [2], in experiment [3], in experiment [4], in experiment [5], in [6] and in experiment [7] was over 100 µM throughout. For the same compound, the TGI in experiment [8] and in experiment [9] was over 100 µM throughout.

Take `O=C1NC(=O)C(C(CC(=O)c2ccc(Cl)cc2)c2ccc(Cl)cc2)C(=O)N1` (configuration not stated): the TGI in experiment [2], in [3], in [4], in experiment [5], in [6] and in experiment [7] was over 100 µM in each case. For the same compound, the TGI in experiment [8], in experiment [10] and in experiment [9] was over 100 µM throughout.

On to `CCN(CC)C(=S)SS(=O)(=O)c1cccc(N)c1`, for which the TGI in experiment [1], in experiment [2], in experiment [3], in [5], in experiment [6] and in experiment [7] was over 100 µM each time. The TGI in experiment [8] and in experiment [10] was over 100 µM in each case.

Consider `CC1=NN(C(=O)c2ccc(Cl)cc2)C(=O)/C1=C/c1ccccc1O`, for which the TGI in experiment [1], in experiment [2], in experiment [3], in experiment [4], in [6] and in experiment [7] was over 100 µM each time. In addition, the TGI in experiment [8], in [10] and in experiment [9] was over 100 µM throughout.

Take `NNC(=O)C1(NC(=O)c2ccccc2)C(c2ccccc2)C(c2ccccc2)=NN1c1ccccc1` (configuration not stated): the TGI in experiment [1] was 53.4 µM; in [2], over 100 µM; in experiment [5], over 100 µM; in [6], over 100 µM; in experiment [7], 54.9 µM; in experiment [8] it was over 100 µM. In experiment [9], this compound returned a TGI of over 100 µM.

Turning to `C=C(C)CC1(O[Si](C)(C)C)C(=O)C(OCC)=C1OCC` (configuration not stated), the TGI in experiment [2], in [3], in experiment [4], in experiment [5], in [6] and in experiment [7] was over 100 µM in each case. In addition, the TGI in experiment [8], in experiment [10] and in experiment [9] was over 100 µM each time.

`COc1ccc2cc(CNCCCCCCNCc3ccc4cc(OC)ccc4c3)ccc2c1`: the TGI in experiment [1] turned out to be 3.07 µM; in [2] it was 2.03 µM; in experiment [3], 0.383 µM; in [4], 0.396 µM; in [5], 3.49 µM; in experiment [6], 0.511 µM. For the same compound, the TGI in experiment [7] came out at 0.315 µM; in experiment [8], 2.67 µM; in [9], 3.15 µM.

Turning to `CCCCCCCCCCCCCCCCCCNc1nc(=O)n(C2CC(O)C(COP(=O)(O)O)O2)cc1F` (configuration not stated), the TGI in [1], in experiment [2], in experiment [3], in experiment [5], in experiment [6] and in experiment [7] was over 100 µM throughout. Moreover, the TGI in experiment [8], in experiment [10] and in [9] was over 100 µM each time.

As for `C/C(=N\NC(=S)N(C)C)c1cccnn1`, the TGI in [2] is over 57.3 µM; in [3], over 100 µM; in experiment [4], over 100 µM; in experiment [5], 4.83 µM; in experiment [6] it was over 100 µM; in [7], over 100 µM. Further, the results for the TGI in experiment [8] and in experiment [9] were over 100 µM and over 40.3 µM, respectively.

Turning to `C=C(C)[C@H]1C2=CC(C)=C(O2)[C@@H](O[C@@H]2c3oc(cc3C)[C@H](C(=C)C)[C@H]3C=C(CC[C@H]2C(=C)C)C(=O)O3)[C@H](C(=C)C)CCC2=C[C@H]1OC2=O`, the TGI in experiment [2], in experiment [4], in [5], in experiment [6], in experiment [7] and in [8] was over 100 µM throughout. Also, the TGI in [10] and in [9] was over 100 µM each time.

As to `Cn1c(=O)oc2nc(-c3ccccc3)cc(C(F)(F)F)c21`, the TGI in [2], in experiment [3], in experiment [5], in experiment [6], in experiment [7] and in [8] was over 100 µM throughout. Besides, the TGI in experiment [10] is 81 µM; in experiment [9], over 100 µM.

For `COc1cccc(C=O)c1[O-].[O]=[U](=[O])([OH2+])[OH2+]`, the TGI in [1] was 94.1 µM; in experiment [2], over 100 µM; in experiment [3], over 100 µM; in experiment [5], over 100 µM; in [6], over 100 µM; in [7], over 100 µM. Further, the TGI in [8], in experiment [10] and in experiment [9] was over 100 µM each time.

Take `Cn1c(-c2ccc(/C=N/NC(=S)N/N=C/c3ccc(-c4c[n+]5ccsc5n4C)cc3)cc2)c[n+]2ccsc12`: the TGI in experiment [2], in experiment [3], in [4], in experiment [6], in experiment [7] and in experiment [8] was over 100 µM in each case. The compound also came in with a TGI in experiment [9] of over 100 µM.

Consider `c1ccc(/C(=N/Nc2ccncn2)c2ccccn2)cc1`, for which the TGI is over 100 µM in [1]; over 100 µM in experiment [2]; over 100 µM in [3]; 96.2 µM in experiment [5]; 93 µM in experiment [6]; 30.5 µM in experiment [7]. In addition, the figures for the TGI in [8] and in [9] were over 100 µM and 53.6 µM, respectively.

As for `Cc1ccc(S(=O)CC(CF)OCn2cc(C)c(=O)[nH]c2=O)cc1` (configuration not stated), the TGI in experiment [2], in experiment [4], in experiment [5], in [6], in [7] and in experiment [8] was over 100 µM throughout. The TGI in experiment [10] and in experiment [9] was over 100 µM in each case.

In the case of `CC1(C)CC(=O)C2(CC(CSc3ccccc3)C(CS(=O)(=O)c3ccccc3)C2)C(=O)C1` (configuration not stated), the TGI in [1], in [2], in [3], in experiment [5], in experiment [6] and in [7] was over 100 µM throughout. Moreover, the TGI in experiment [8], in [10] and in experiment [9] was over 100 µM in each case.

In the case of `CN(C)CCn1c(CO)nc2c1c(=O)n(C)c(=O)n2C`, the TGI in experiment [1], in [2], in [3], in [4], in experiment [5] and in [6] was over 100 µM throughout. Besides, the TGI in [7], in experiment [8] and in experiment [9] was over 100 µM each time.

For the compound `C=CCOn1c(C=C)nc2ccc(C)cc21`, the TGI in experiment [2] is 41.7 µM; in experiment [3] it was 30.2 µM; in experiment [4], 22.2 µM; in experiment [5] it was 37.5 µM; in experiment [6], 44.2 µM; in [7], 32.6 µM. Further, the values for the TGI in experiment [8], in experiment [10] and in experiment [9] were 33.4 µM, over 100 µM and over 100 µM, respectively.

For `CN1CC2=C(NC(=S)NC2c2ccccc2)/C(=C/c2ccccc2)C1` (configuration not stated), the TGI was over 100 µM in experiment [2]; 71.7 µM in experiment [3]; over 10 µM in [4]; over 100 µM in experiment [5]; 68 µM in experiment [6]; 56.6 µM in [7]. In addition, the TGI in experiment [8] and in experiment [9] was over 100 µM in each case.

In the case of `CN(Cc1cnc2nc(N)nc(N)c2n1)c1ccc(C(=O)NC(CO)CCCO)cc1` (configuration not stated), the TGI in experiment [1], in experiment [2], in experiment [3], in [4], in [5] and in [6] was over 100 µM throughout. The TGI in experiment [7], in experiment [8] and in [9] was over 100 µM each time.

As to `CCN=C1C=CC(=C(c2ccc(N(CC)CC)cc2)c2ccc(N(CC)CC)cc2)c2ccccc21`, the GI50 in experiment [1] was 0.0585 µM; in experiment [2], 0.294 µM; in experiment [3] it was 0.033 µM; in [5] it was 0.064 µM; in experiment [7], 0.184 µM; in [10] it was 0.0175 µM. In addition, the TGI in experiment [1] came to 0.384 µM; in experiment [2], 1.23 µM; in [3] it was 1.01 µM; in [5] it was 1.61 µM; in experiment [7] it was 1.22 µM; in experiment [10], 0.0922 µM.

For the compound `CC(C)C(C/C=C1\CC(CO)(COC(=O)C2CCCCC2)OC1=O)C(C)C` (configuration not stated), the TGI in experiment [1] turned out to be 35.4 µM; in experiment [2], 41.8 µM; in experiment [3], 79.5 µM; in [5], 38.3 µM; in experiment [6], 39.5 µM; in [7] it was 48.4 µM. The TGI in [8] was 31.2 µM; in experiment [10], 37.5 µM; in experiment [9], 39.5 µM.

As for `COC[C@@H](N=Cc1ccc([N+](=O)[O-])cc1)C(C)C`, the TGI in experiment [1], in experiment [2], in [3], in experiment [6], in [7] and in experiment [8] was over 100 µM each time. Besides, the TGI in experiment [9] was over 100 µM.

For the compound `COc1ccc(C(=O)CC(c2ccccc2)[C@H]2C(c3ccc(OC)cc3)=Nc3c(nc(SC)n(C)c3=O)NC2c2ccccc2)cc1` (some centres not stated), the TGI in [1], in experiment [2], in [3], in [5], in [6] and in experiment [7] was over 100 µM throughout. Moreover, the TGI in experiment [8], in experiment [10] and in experiment [9] was over 100 µM in each case.

For `C=CCC1C(O[Si](C)(C)C(C)(C)C)C(CO[Si](C)(C)C(C)(C)C)OC1n1ccc(=O)[nH]c1=O` (configuration not stated), the TGI in [2] is 2.57 µM; in experiment [3] it was 2.8 µM; in experiment [5] it was 3.02 µM; in experiment [6], over 100 µM; in experiment [7] it was 2.96 µM; in [8] it was 2.8 µM. Further, the TGI is 2.5 µM in [10] and 3.02 µM in [9].

On to `Cc1cc(OC(=O)NCn2cc(-c3ccccc3)nn2)ccc1Cl`, for which the TGI in experiment [2], in experiment [3], in [4], in experiment [5], in [6] and in experiment [7] was over 100 µM in each case. The TGI in experiment [8], in [10] and in [9] was over 100 µM each time.

In the case of `CCOP(=O)(OCC)/C(=C/c1cccs1)CC(C)=O`, the TGI in experiment [1], in experiment [2], in experiment [3], in experiment [5], in experiment [6] and in [7] was over 100 µM throughout. Moreover, the TGI in experiment [8], in experiment [10] and in experiment [9] was over 100 µM in each case.

As to `COc1cc(C2C3=C(COC3=O)Oc3cc4c(cc32)OCO4)cc(OC)c1O` (configuration not stated), the TGI in experiment [2] is 39.4 µM; in experiment [3] it was 0.984 µM; in experiment [4], 0.294 µM; in experiment [5], 0.215 µM; in [6] it was over 100 µM; in experiment [7], over 100 µM. For the same compound, the TGI in [8] was 23.2 µM; in experiment [10], 5.55 µM; in [9], 21.9 µM.
